Here are results for one compound from US20040086945A1, “Hairless protein-interacting partner complexes and methods thereto” (The Procter & Gamble Company, priority 2002, published 2004).

SMILES strings stand for the structures.

The test has as its system Male C3H mice. As to the kind of experiment: Animal model for hair growth stimulation (HGS) activity. The format is in vivo. The following applies: applied daily for 17 days to shaved, Nair-treated back; day 17 compared to control treatment. On the procedure: Male C3H mice (˜42-48 days old and weighing ˜24 g) purchased from Harlan are acclimatized for 2 days and ˜2 cm^2 area on their back is shaved closely with an electric hair trimmer. To the shaved area, ˜300 μl of Nair lotion (NEW! Quick'n Easy 4 Minute Formula) is thinly smeared with a gloved fingertip for ˜30 sec. The area is wiped with Kimwipes for ˜15 sec and immediately washed under a gentle stream of lukewarm water for ˜50 sec and patted dry with Kimwipes. Test materials are applied (5 animals/test material) daily for 17 days. The shaved area is visually observed every day for anagen conversion and hair growth. Animal backs are photographed on day 8 and 17. In this model Triiodo thyronine (T3) has clear HGS activity (100% HGS activity), as evidenced by early onset of pigmentation and clear increase in hair length at day 17 compared to control treatment (60% ethanol, 20% propylene glycol and 20% Transcutol).

Take `N[C@@H](Cc1cc(I)c(Oc2ccc(O)c(I)c2)c(I)c1)C(=O)O` [Triiodo thyronine]: the HGS activity is recorded as 100%.
